# Experiments:
# sugarbeets = experiment: Sugarbeet field trial, Wilkin County, Minnesota (ACH 228 seed); format: in vivo
# Protocol: To test the efficacy of using a sugar based fertilizer composition with sugarbeets, a field trial using Crystal® brand ACH 228 sugarbeet seed was conducted in Wilkin County, Minnesota. A total of eleven (11) treatments were conducted. Each treatment was replicated four times arranged in a Randomized Complete Block (RCB) Design in the same field. Each replication consisted of a plot having a width of six (6) rows with twenty two (22) inch row spacing having a row length of twenty five (25) feet. To reduce/eliminate any treatment impacts between adjacent plots, only the four (4) interior rows of each plot were treated and evaluated. With the exception of the treatment program applied to the individual plots, which will be discussed below, conventional commercial growing practices were otherwise followed during the field trials. The individual plots experienced the same growing conditions throughout the season.
# The treatment regimen for the sugarbeets included one (1) untreated treatment in which no sugar was applied was used as the control element. One (1) treatment included Sun Energy Foliar Fertilizer (SE) available from Micro Nutrients Online. […] treatments were conducted using GS. SE is available in liquid form and was applied by spraying while GS was supplied in a conventional solid form and applied via broadcast spreading. SE is for foliar application and was applied according to the labeling instructions on post-emergent (Post) sugarbeet plants at the both the 4-Leaf and 8-Leaf stages. GS was applied at a variety of times, both pre-planting (Pre) and on post-emergent sugarbeet plants (Post) at either or both of the 4-Leaf and 8-Leaf stages. When applied during pre-planting (Pre), the GS was spread directly on the soil before spring tillage, lightly worked into the ground and followed by planting of the sugarbeet seed into the treated ground. A summary of the plot treatments are contained in Table 1 below:
# Following a conventional growing season, the middle four rows of each plot were harvested and data collected for overall yield (tons of sugarbeets/Acre), sugar per ton (pounds of recoverable sugar/ton of sugarbeets) and sugar per Acre (pounds of recoverable sugar/Acre). Fisher's Exact LSD was the statistical test of choice for mean separation for the individual plots of each treatment. A summary of the sugarbeet harvest data is contained in Table 2 below: […]
# soybeans = experiment: Soybean field trial, Wilkin County, Minnesota (NKS06-H5 seed); format: in vivo
# Protocol: To test the efficacy of using a sugar based fertilizer composition with soybeans, field trials using Northrup-King NKS06-H5 soybean seed were conducted in Wilkin County, Minnesota. A total of six (6) treatments were conducted. Each treatment was replicated four times arranged in a Randomized Complete Block (RCB) Design in the same field. Each replication consisted of a plot having a width of six (6) rows with twenty two (22) inch row spacing having a row length of twenty five (25) feet. To reduce/eliminate any treatment impacts between adjacent plots, only the four (4) interior rows of each plot were treated and evaluated. With the exception of the treatment program applied to the individual plots, which will be discussed below, conventional commercial growing practices were otherwise followed during the field trials. The individual plots experienced the same growing conditions throughout the season.
# The treatment regimen for the soybeans included one (1) untreated treatment in which no sugar was applied and was used as the control element. One (1) treatment included treatment with Sun Energy Foliar Fertilizer (SE). […] SE was supplied in liquid form and applied by spraying while GS was supplied in a conventional solid form and applied via broadcast spreading. SE is for foliar application and was applied according to the labeling instructions on post-emergent (Post) soybean plants at both the Vegetative Fourth Trifoliolate (V4) and Reproductive Beginning Flowering (R1) stages. GS was applied at a variety of times, both pre-planting (Pre) and on post-emergent (Post) soybean plants at either or the V4 or R1 stages. When applied during pre-planting (Pre), the GS was spread directly on the soil before spring tillage, lightly worked into the ground and followed by planting of the soybean seed into the treated ground. A summary of the plot treatments is contained in Table 4 below:
# Following a conventional growing season, the middle four rows of each plot were harvested and data collected for overall yield (bushels of soybeans/Acre), protein dry basis (%) and oil dry basis (%). Fisher's Exact LSD was the statistical test of choice for mean separation for the individual plots of each treatment. A summary of the soybean harvest data is contained in Table 5 below: […]
# [1] = Replication 3: 50 pounds/Acre Pre
# [2] = Replication 4: 100 pounds/Acre Pre
# [3] = Replication 5: 3 pounds/Acre 4-Leaf Post
# [4] = Replication 6: 3 pounds/Acre 8-Leaf Post
# [5] = Replication 7: 5 pounds/Acre 4-Leaf Post
# [6] = Replication 8: 3 pounds/Acre 4-Leaf + 3 pounds/Acre 8-Leaf Post
# [7] = Replication 9: 5 pounds/Acre 4-Leaf + 5 pounds/Acre 8-Leaf Post
# [8] = Replication 10: 50 pounds/Acre Pre + 3 pounds/Acre 8-Leaf
# [9] = Replication 11: 100 pounds/Acre Pre + 5 pounds/Acre 8-Leaf
# [10] = Replication 3: 100 pounds/Acre Pre + 3 pounds/Acre Post (V4)
# [11] = Replication 4: 3 pounds/Acre Post (R1)
# [12] = Replication 5: 5 pounds/Acre Post (R1)
# [13] = Replication 6: 100 pounds/Acre Pre + 5 pounds/Acre Post (V4)
smiles,measurement,setting,value
"OC[C@H]1O[C@@](CO)(O[C@H]2O[C@H](CO)[C@@H](O)[C@H](O)[C@H]2O)[C@@H](O)[C@@H]1O [GS, sucrose]",Pounds of Recoverable Sugar/Acre,sugarbeets; [1],7598.95 pounds/Acre
same,Pounds of Recoverable Sugar/Ton of Sugarbeets,sugarbeets; [1],282.03 pounds/ton
same,Tons of Sugarbeets/Acre,sugarbeets; [1],26.94 tons/Acre
same,Yield Increase (recoverable sugar/Acre vs check),sugarbeets; [1],9.32%
same,Pounds of Recoverable Sugar/Acre,sugarbeets; [2],8051.44 pounds/Acre
same,Pounds of Recoverable Sugar/Ton of Sugarbeets,sugarbeets; [2],278.54 pounds/ton
same,Tons of Sugarbeets/Acre,sugarbeets; [2],28.91 tons/Acre
same,Yield Increase (recoverable sugar/Acre vs check),sugarbeets; [2],15.83%
same,Pounds of Recoverable Sugar/Acre,sugarbeets; [3],7021.89 pounds/Acre
same,Pounds of Recoverable Sugar/Ton of Sugarbeets,sugarbeets; [3],276.83 pounds/ton
same,Tons of Sugarbeets/Acre,sugarbeets; [3],25.41 tons/Acre
same,Yield Increase (recoverable sugar/Acre vs check),sugarbeets; [3],1.02%
same,Pounds of Recoverable Sugar/Acre,sugarbeets; [4],7279.72 pounds/Acre
same,Pounds of Recoverable Sugar/Ton of Sugarbeets,sugarbeets; [4],284.34 pounds/ton
same,Tons of Sugarbeets/Acre,sugarbeets; [4],25.64 tons/Acre
same,Yield Increase (recoverable sugar/Acre vs check),sugarbeets; [4],4.73%
same,Pounds of Recoverable Sugar/Acre,sugarbeets; [5],6712.87 pounds/Acre
same,Pounds of Recoverable Sugar/Ton of Sugarbeets,sugarbeets; [5],274.69 pounds/ton
same,Tons of Sugarbeets/Acre,sugarbeets; [5],24.43 tons/Acre
same,Yield Increase (recoverable sugar/Acre vs check),sugarbeets; [5],−3.43%
same,Pounds of Recoverable Sugar/Acre,sugarbeets; [6],6125.93 pounds/Acre
same,Pounds of Recoverable Sugar/Ton of Sugarbeets,sugarbeets; [6],270.05 pounds/ton
same,Tons of Sugarbeets/Acre,sugarbeets; [6],22.81 tons/Acre
same,Yield Increase (recoverable sugar/Acre vs check),sugarbeets; [6],−11.87%
same,Pounds of Recoverable Sugar/Acre,sugarbeets; [7],6957.73 pounds/Acre
same,Pounds of Recoverable Sugar/Ton of Sugarbeets,sugarbeets; [7],289.83 pounds/ton
same,Tons of Sugarbeets/Acre,sugarbeets; [7],24.00 tons/Acre
same,Yield Increase (recoverable sugar/Acre vs check),sugarbeets; [7],0.10%
same,Pounds of Recoverable Sugar/Acre,sugarbeets; [8],7250.53 pounds/Acre
same,Pounds of Recoverable Sugar/Ton of Sugarbeets,sugarbeets; [8],276.34 pounds/ton
same,Tons of Sugarbeets/Acre,sugarbeets; [8],26.24 tons/Acre
same,Yield Increase (recoverable sugar/Acre vs check),sugarbeets; [8],4.31%
same,Pounds of Recoverable Sugar/Acre,sugarbeets; [9],7963.70 pounds/Acre
same,Pounds of Recoverable Sugar/Ton of Sugarbeets,sugarbeets; [9],274.29 pounds/ton
same,Tons of Sugarbeets/Acre,sugarbeets; [9],29.03 tons/Acre
same,Yield Increase (recoverable sugar/Acre vs check),sugarbeets; [9],14.57%
same,yield increase in comparison to the untreated check,sugarbeets; every pre-planting application of GS,≥ 4%
same,yield increase as compared to the untreated check,sugarbeets; largest pre-planting applications of GS,≥ 14%
same,yield data,sugarbeets; only post-emergent application of GS at 4-Leaf or 8-Leaf stage,inconclusive
same,side-by-side visual comparison of soybean plants with untreated check,"soybeans; GS 100 pounds/acre prior to planting, 40 and 60 days after planting (FIGS. 7-9)",larger more robust soybean plants
same,Bushels of Soybeans/Acre,soybeans; [10],52.92 bushels/Acre
same,Yield Increase (Treatment Bushels of Soybeans/Acre)/(Check Bushels of Soybeans/Acre),soybeans; [10],31.84%
same,Bushels of Soybeans/Acre,soybeans; [11],35.56 bushels/Acre
same,Yield Increase (Treatment Bushels of Soybeans/Acre)/(Check Bushels of Soybeans/Acre),soybeans; [11],−11.41%
same,Bushels of Soybeans/Acre,soybeans; [12],40.14 bushels/Acre
same,Yield Increase (Treatment Bushels of Soybeans/Acre)/(Check Bushels of Soybeans/Acre),soybeans; [12],0.00%
same,Bushels of Soybeans/Acre,soybeans; [13],45.28 bushels/Acre
same,Yield Increase (Treatment Bushels of Soybeans/Acre)/(Check Bushels of Soybeans/Acre),soybeans; [13],12.81%
same,yield increase as compared to the untreated check,soybeans; every pre-planting (Pre) application of GS,at least 12.8%
same,yield data,soybeans; only post-emergent application of GS,inconclusive

# — patent publication US20160262390A1, “FIELD APPLICATION OF SUGARS TO INCREASE CROP YIELD” (Minn-Dak Farmers Cooperative, priority 2015, published 2016)
